# Several values for one entry are separate records, joined by “and”; a condition that tells them apart may be missing. Identical values can stand only once.
# Key:
# SfurOBP1 = SfurOBP1 (Sogatella furcifera, UniProt V5T8N5); experiment: biochemical; format: binding; conditions: for Fluorescence competitive binding assay, fluorescence intensity: OBP1, three replicate columns
# How it was run: (§1)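 Protein 2.0 µM + 1-NPN 2.0 µM, 50 mM Tris-HCl pH 7.4; competitor odorants 2, 4 … 20 µM final; read 2 min post-addition, ex 337/em 390–490 nm; n=3. K1-NPN from 1-NPN titration/Scatchard; Ki from IC50 corrected for free 1-NPN.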
# SfurOBP11 = SfurOBP11 (Sogatella furcifera, UniProt V5T6E3); experiment: biochemical; format: binding
# Chain of SfurOBP11 (V5T6E3 entry or part of it): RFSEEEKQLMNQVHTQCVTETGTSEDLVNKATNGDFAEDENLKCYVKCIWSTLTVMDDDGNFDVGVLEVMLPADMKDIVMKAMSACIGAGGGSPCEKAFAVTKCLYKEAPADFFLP
# How it was run: as §1
# SfurOBP2 = SfurOBP2 (Sogatella furcifera, UniProt V5T759); experiment: biochemical; format: binding
# Chain of SfurOBP2 (V5T759 entry or part of it): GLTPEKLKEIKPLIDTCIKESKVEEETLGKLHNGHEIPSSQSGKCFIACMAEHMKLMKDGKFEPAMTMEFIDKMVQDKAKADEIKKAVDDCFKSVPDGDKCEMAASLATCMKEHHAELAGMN
# How it was run: as §1
# SfurOBP3 = SfurOBP3 (Sogatella furcifera, UniProt V5T818); experiment: biochemical; format: binding; conditions: for Fluorescence competitive binding assay, fluorescence intensity: OBP3, three replicate columns
# Chain of SfurOBP3 (V5T818 entry or part of it): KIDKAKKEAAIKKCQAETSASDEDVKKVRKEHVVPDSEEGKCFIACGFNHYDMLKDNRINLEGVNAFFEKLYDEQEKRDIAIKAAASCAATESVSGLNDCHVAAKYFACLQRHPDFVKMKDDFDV
# How it was run: as §1
# S. furcifera adults = experiment: Y-tube olfactometer behavioral trials; format: in vivo, Sogatella furcifera; conditions: odorant 50 µL/L vs hexane
# How it was run: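 Single S. furcifera adults (2 days post-emergence, starved 0.5 h) chose between odorant (100 µL of 50 µL/L on filter paper) and hexane control in a glass Y-tube, charcoal-filtered humidified air 300 mL/min per arm, 25 ± 1 °C, 50% RH. Choice scored if insect passed half an arm and stayed >1 min within 10 min; 45 insects per compound, chi-squared test.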
# Chain of SfurOBP1 (V5T8N5 entry or part of it): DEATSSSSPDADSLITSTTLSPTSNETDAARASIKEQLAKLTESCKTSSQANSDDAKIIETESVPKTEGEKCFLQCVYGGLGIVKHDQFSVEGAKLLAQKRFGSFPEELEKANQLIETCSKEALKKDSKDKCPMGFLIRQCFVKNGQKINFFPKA
smiles,measurement,setting,value
CC(=O)c1ccccc1 [acetophenone],"Fluorescence competitive binding assay, fluorescence intensity",SfurOBP1; ligand concentration 2 (μM),5574 and 5550 and 5238
same,"Fluorescence competitive binding assay, fluorescence intensity",SfurOBP1; ligand concentration 4 (μM),4710 and 5782 and 5020
same,"Fluorescence competitive binding assay, fluorescence intensity",SfurOBP1; ligand concentration 6 (μM),5308 and 5201 and 5270
same,"Fluorescence competitive binding assay, fluorescence intensity",SfurOBP1; ligand concentration 8 (μM),4498 and 4902 and 5186
same,"Fluorescence competitive binding assay, fluorescence intensity",SfurOBP1; ligand concentration 10 (μM),4649 and 5445 and 5409
same,"Fluorescence competitive binding assay, fluorescence intensity",SfurOBP1; ligand concentration 12 (μM),5039 and 5542 and 4835
same,"Fluorescence competitive binding assay, fluorescence intensity",SfurOBP1; ligand concentration 14 (μM),5190 and 5205 and 6069
same,"Fluorescence competitive binding assay, fluorescence intensity",SfurOBP1; ligand concentration 16 (μM),4320 and 5267 and 4703
same,"Fluorescence competitive binding assay, fluorescence intensity",SfurOBP1; ligand concentration 18 (μM),5435 and 5537 and 6009
same,"Fluorescence competitive binding assay, fluorescence intensity",SfurOBP1; ligand concentration 20 (μM),6807 and 4924 and 6337
same,IC50,"SfurOBP1; SfurOBP1, protein and 1-NPN both 2.0 µM, competitor 2-20 µM, read-out: IC50",> 20 µM
same,IC50,"SfurOBP11; SfurOBP11, protein and 1-NPN both 2.0 µM, competitor 2-20 µM, read-out: IC50",> 20 µM
same,"Fluorescence intensity, fluorescence competitive binding assay, OBP11","SfurOBP11; ligand concentration 2, replicate 1",26535
same,"Fluorescence intensity, fluorescence competitive binding assay, OBP11","SfurOBP11; ligand concentration 2, replicate 2",26162
same,"Fluorescence intensity, fluorescence competitive binding assay, OBP11","SfurOBP11; ligand concentration 2, replicate 3",26541
same,"Fluorescence intensity, fluorescence competitive binding assay, OBP11","SfurOBP11; ligand concentration 4, replicate 1",25394
same,"Fluorescence intensity, fluorescence competitive binding assay, OBP11","SfurOBP11; ligand concentration 4, replicate 2",26325
same,"Fluorescence intensity, fluorescence competitive binding assay, OBP11","SfurOBP11; ligand concentration 4, replicate 3",27262
same,"Fluorescence intensity, fluorescence competitive binding assay, OBP11","SfurOBP11; ligand concentration 6, replicate 1",26264
same,"Fluorescence intensity, fluorescence competitive binding assay, OBP11","SfurOBP11; ligand concentration 6, replicate 2",26035
same,"Fluorescence intensity, fluorescence competitive binding assay, OBP11","SfurOBP11; ligand concentration 6, replicate 3",26502
same,"Fluorescence intensity, fluorescence competitive binding assay, OBP11","SfurOBP11; ligand concentration 8, replicate 1",25045
same,"Fluorescence intensity, fluorescence competitive binding assay, OBP11","SfurOBP11; ligand concentration 8, replicate 2",25714
same,"Fluorescence intensity, fluorescence competitive binding assay, OBP11","SfurOBP11; ligand concentration 8, replicate 3",24376
same,"Fluorescence intensity, fluorescence competitive binding assay, OBP11","SfurOBP11; ligand concentration 10, replicate 1",24885
same,"Fluorescence intensity, fluorescence competitive binding assay, OBP11","SfurOBP11; ligand concentration 10, replicate 2",24226
same,"Fluorescence intensity, fluorescence competitive binding assay, OBP11","SfurOBP11; ligand concentration 10, replicate 3",23566
same,"Fluorescence intensity, fluorescence competitive binding assay, OBP11","SfurOBP11; ligand concentration 12, replicate 1",21957
same,"Fluorescence intensity, fluorescence competitive binding assay, OBP11","SfurOBP11; ligand concentration 12, replicate 2",22135
same,"Fluorescence intensity, fluorescence competitive binding assay, OBP11","SfurOBP11; ligand concentration 12, replicate 3",20925
same,"Fluorescence intensity, fluorescence competitive binding assay, OBP11","SfurOBP11; ligand concentration 14, replicate 1",23062
same,"Fluorescence intensity, fluorescence competitive binding assay, OBP11","SfurOBP11; ligand concentration 14, replicate 2",21821
same,"Fluorescence intensity, fluorescence competitive binding assay, OBP11","SfurOBP11; ligand concentration 14, replicate 3",20452
same,"Fluorescence intensity, fluorescence competitive binding assay, OBP11","SfurOBP11; ligand concentration 16, replicate 1",19007
same,"Fluorescence intensity, fluorescence competitive binding assay, OBP11","SfurOBP11; ligand concentration 16, replicate 2",19354
same,"Fluorescence intensity, fluorescence competitive binding assay, OBP11","SfurOBP11; ligand concentration 16, replicate 3",17450
same,"Fluorescence intensity, fluorescence competitive binding assay, OBP11","SfurOBP11; ligand concentration 18, replicate 1",21957
same,"Fluorescence intensity, fluorescence competitive binding assay, OBP11","SfurOBP11; ligand concentration 18, replicate 2",23680
same,"Fluorescence intensity, fluorescence competitive binding assay, OBP11","SfurOBP11; ligand concentration 18, replicate 3",21455
same,"Fluorescence intensity, fluorescence competitive binding assay, OBP11","SfurOBP11; ligand concentration 20, replicate 1",23354
same,"Fluorescence intensity, fluorescence competitive binding assay, OBP11","SfurOBP11; ligand concentration 20, replicate 2",26458
same,"Fluorescence intensity, fluorescence competitive binding assay, OBP11","SfurOBP11; ligand concentration 20, replicate 3",24921
same,IC50,"SfurOBP2; SfurOBP2, protein and 1-NPN both 2.0 µM, competitor 2-20 µM, read-out: IC50",> 20 µM
same,"Fluorescence competitive binding assay, OBP2 (raw fluorescence reading)","SfurOBP2; ligand concentration 2 (unit not given), replicate column 1 of 3",18213
same,"Fluorescence competitive binding assay, OBP2 (raw fluorescence reading)","SfurOBP2; ligand concentration 2 (unit not given), replicate column 2 of 3",17695
same,"Fluorescence competitive binding assay, OBP2 (raw fluorescence reading)","SfurOBP2; ligand concentration 2 (unit not given), replicate column 3 of 3",18887
same,"Fluorescence competitive binding assay, OBP2 (raw fluorescence reading)","SfurOBP2; ligand concentration 4 (unit not given), replicate column 1 of 3",18465
same,"Fluorescence competitive binding assay, OBP2 (raw fluorescence reading)","SfurOBP2; ligand concentration 4 (unit not given), replicate column 2 of 3",18805
same,"Fluorescence competitive binding assay, OBP2 (raw fluorescence reading)","SfurOBP2; ligand concentration 4 (unit not given), replicate column 3 of 3",18729
same,"Fluorescence competitive binding assay, OBP2 (raw fluorescence reading)","SfurOBP2; ligand concentration 6 (unit not given), replicate column 1 of 3",17576
same,"Fluorescence competitive binding assay, OBP2 (raw fluorescence reading)","SfurOBP2; ligand concentration 6 (unit not given), replicate column 2 of 3",17836
same,"Fluorescence competitive binding assay, OBP2 (raw fluorescence reading)","SfurOBP2; ligand concentration 6 (unit not given), replicate column 3 of 3",18066
same,"Fluorescence competitive binding assay, OBP2 (raw fluorescence reading)","SfurOBP2; ligand concentration 8 (unit not given), replicate column 1 of 3",15752
same,"Fluorescence competitive binding assay, OBP2 (raw fluorescence reading)","SfurOBP2; ligand concentration 8 (unit not given), replicate column 2 of 3",18865
same,"Fluorescence competitive binding assay, OBP2 (raw fluorescence reading)","SfurOBP2; ligand concentration 8 (unit not given), replicate column 3 of 3",17007
same,"Fluorescence competitive binding assay, OBP2 (raw fluorescence reading)","SfurOBP2; ligand concentration 10 (unit not given), replicate column 1 of 3",16925
same,"Fluorescence competitive binding assay, OBP2 (raw fluorescence reading)","SfurOBP2; ligand concentration 10 (unit not given), replicate column 2 of 3",17786
same,"Fluorescence competitive binding assay, OBP2 (raw fluorescence reading)","SfurOBP2; ligand concentration 10 (unit not given), replicate column 3 of 3",17356
same,"Fluorescence competitive binding assay, OBP2 (raw fluorescence reading)","SfurOBP2; ligand concentration 12 (unit not given), replicate column 1 of 3",16049
same,"Fluorescence competitive binding assay, OBP2 (raw fluorescence reading)","SfurOBP2; ligand concentration 12 (unit not given), replicate column 2 of 3",16437
same,"Fluorescence competitive binding assay, OBP2 (raw fluorescence reading)","SfurOBP2; ligand concentration 12 (unit not given), replicate column 3 of 3",16824
same,"Fluorescence competitive binding assay, OBP2 (raw fluorescence reading)","SfurOBP2; ligand concentration 14 (unit not given), replicate column 1 of 3",15270
same,"Fluorescence competitive binding assay, OBP2 (raw fluorescence reading)","SfurOBP2; ligand concentration 14 (unit not given), replicate column 2 of 3",15647
same,"Fluorescence competitive binding assay, OBP2 (raw fluorescence reading)","SfurOBP2; ligand concentration 14 (unit not given), replicate column 3 of 3",14905
same,"Fluorescence competitive binding assay, OBP2 (raw fluorescence reading)","SfurOBP2; ligand concentration 16 (unit not given), replicate column 1 of 3",15319
same,"Fluorescence competitive binding assay, OBP2 (raw fluorescence reading)","SfurOBP2; ligand concentration 16 (unit not given), replicate column 2 of 3",14300
same,"Fluorescence competitive binding assay, OBP2 (raw fluorescence reading)","SfurOBP2; ligand concentration 16 (unit not given), replicate column 3 of 3",16123
same,"Fluorescence competitive binding assay, OBP2 (raw fluorescence reading)","SfurOBP2; ligand concentration 18 (unit not given), replicate column 1 of 3",15075
same,"Fluorescence competitive binding assay, OBP2 (raw fluorescence reading)","SfurOBP2; ligand concentration 18 (unit not given), replicate column 2 of 3",15152
same,"Fluorescence competitive binding assay, OBP2 (raw fluorescence reading)","SfurOBP2; ligand concentration 18 (unit not given), replicate column 3 of 3",15228
same,"Fluorescence competitive binding assay, OBP2 (raw fluorescence reading)","SfurOBP2; ligand concentration 20 (unit not given), replicate column 1 of 3",14131
same,"Fluorescence competitive binding assay, OBP2 (raw fluorescence reading)","SfurOBP2; ligand concentration 20 (unit not given), replicate column 2 of 3",14026
same,"Fluorescence competitive binding assay, OBP2 (raw fluorescence reading)","SfurOBP2; ligand concentration 20 (unit not given), replicate column 3 of 3",13920
same,"Fluorescence competitive binding assay, fluorescence intensity",SfurOBP3; ligand concentration 2,34223 and 34200 and 33767
same,"Fluorescence competitive binding assay, fluorescence intensity",SfurOBP3; ligand concentration 4,34565 and 34966 and 35111
same,"Fluorescence competitive binding assay, fluorescence intensity",SfurOBP3; ligand concentration 6,33473 and 32986 and 33557
same,"Fluorescence competitive binding assay, fluorescence intensity",SfurOBP3; ligand concentration 8,31804 and 31815 and 33904
same,"Fluorescence competitive binding assay, fluorescence intensity",SfurOBP3; ligand concentration 10,31933 and 33856 and 32393
same,"Fluorescence competitive binding assay, fluorescence intensity",SfurOBP3; ligand concentration 12,28357 and 30958 and 31303
same,"Fluorescence competitive binding assay, fluorescence intensity",SfurOBP3; ligand concentration 14,30291 and 29441 and 31149
same,"Fluorescence competitive binding assay, fluorescence intensity",SfurOBP3; ligand concentration 16,26096 and 27512 and 26789
same,"Fluorescence competitive binding assay, fluorescence intensity",SfurOBP3; ligand concentration 18,36577 and 32045 and 32081
same,"Fluorescence competitive binding assay, fluorescence intensity",SfurOBP3; ligand concentration 20,29304 and 29350 and 25941
same,binding affinity to SfurOBP3 (in words),SfurOBP3; SfurOBP3,high binding affinities
same,IC50,"SfurOBP3; SfurOBP3, protein and 1-NPN both 2.0 µM, competitor 2-20 µM, read-out: IC50",17.4 µM
same,behavioral response of S. furcifera (in words),S. furcifera adults,strongly attracted
same,number of insects choosing hexane arm,S. furcifera adults; adults,11
same,number of insects choosing volatilies arm,S. furcifera adults; adults,20
same,number of insects failed (no choice),S. furcifera adults; adults,9

# From publication PMC6409085, “Three odorant-binding proteins are involved in the behavioral response of Sogatella furcifera to rice plant volatiles” (PeerJ, 2019)
